Where two headings read alike, the source gives them in different places.

The test system of one series is MT-4 cells. The series can be described thus: Cytotoxicity in mock-infected MT-4 cells (trypan blue exclusion / MTT method). The format is cell-based. The note with it: for HIV (µM) TD₅₀: human, 5 days. The method, then: (§1) The anti-HIV activity of the agents that are subject of the present invention was measured according to the method of E. De Clercq et al. (The Journal of Virological Methods, 16 : 171 - 185 (1987) and The Journal of Virological Methods, 20 : 309-321 (1988)).
(§2) MT-4 cells of a 24 hours-old culture were suspended at 5 x 10⁵ cells per ml. Of this suspension, 2-ml portions were divided over polyisopropylene 2059 Falcon culture tubes (Becton Dickinson). The MT-4 cell suspensions were then centrifuged for 10 min at 140 x g and the supernatants were discarded. The MT-4 cell pellets were infected with 200 µl of a 1:5 HIV stock solution (titer 10³ CCID₅₀ ml; i.e., finally 10 CCID₅₀ well) in RPMI medium (composition as described above). Control MT-4 cell pellets were mock-infected with 200 µl RPMI medium. The culture tubes were then capsulated and subsequently incubated at 37 °C for 1.5 hours, upon which 1.8 ml of RPMI medium was added to each tube. The HIV-infected and mock-infected MT-4 cells were each pooled in two 45-ml centrifuge tubes.
(§3) Varying dilutions of the test compounds in RPMI medium were added in 100-µl volumes to the wells of a flat bottom, 96-well plastic microtiter tray (Sterilin Ltd. Teddington, Middlesex, England).
(§4) Of the HIV-infected or mock-infected MT-4 cell suspensions 100-µl volumes were added to the wells. The cell cultures were then incubated at 37 °C in a 5 % CO₂/95 % air humidified atmosphere. The cells remained in contact with the test compounds during the whole incubation period. Five days after infection the viability of the cells was examined microscopically in a hematocytometer by the trypan blue dye exclusion method.
(§5) Alternatively, viability of the cells was determined by the tetrazolium-based colorimetric method (MTT method) as described in the Journal of Virological Methods, 20 : 309 - 321 (1988).
(§6) Flat bottom, 96-well plastic mictrotiter trays (Falcon, Becton Dickinson, Mountain View, CA) were filled with 100 µl of complete medium using a Titertek® Multidrop dispenser (Flow Laboratories). This eight-channel dispenser could fill a microtiter tray in less than 10 s. Subsequently, stock solutions (10 x final test concentration) of compounds were added in 25 µl volumes to two series of triplicate wells so as to allow simultaneous evaluation of their effects on HIV- and mock-infected cells. Serial five-fold dilutions were made directly in the microtiter trays using an eight-channel Titertek® pipette (FLow Laboratories). Untreated control HIV- and mock-infected cell samples were included for each compound.
(§7) Exponentially growing MT-4 cells were centrifuged for 10 min at 140 x g and the supernatants were discarded. The pellet was either infected with 100 CCID₅₀ or mock-infected. The MT-4 cells were resuspended at 4 x 10⁵ cells/ml in two flasks which were connected with an autoclavable dispensing cassette of a Titertek® Multidrop dispenser. Under slight magnetic stirring 100-µl volumes were then transferred to the microtiter tray wells. The outer row wells were filled with 100 µl of medium. The cell cultures were incubated at 37 °C in a humidified atmosphere of 5 % CO₂ in air. The cells remained in contact with the test compounds during the whole incubation period. Five days after infection the viability of mock- and HIV infected cells was examined either microscopically in a hemacytometer by the trypan blue exclusion method or spectrophotometrically by the MTT method.
(§8) The MTT method is based on the reduction of the yellow coloured 3-(4,5-dimethylthiazol-2-yl)-2,5-diphenyltetrazolium bromide (MTT) (Sigma Chemical Co., St. Louis, MO) by mitochondrial dehydrogenases of metabolically active cells to a blue formazan which can be measured spectrophotometrically. Therefore, to each well of the microtiter trays, 20 µl of a solution of MTT (7.5 mg/ml) in phosphate-buffered saline was added using the Titertek® Multidrop. The trays were further incubated at 37 °C in a CO₂ incubator for the indicated times. […]
A general note: Tetrazolium assays rely on reduction of a dye to a coloured formazan, in cell work by metabolically active cells.

A further series concerns HIV. The series can be described thus: Anti-HIV assay: protection of HIV-infected MT-4 cells against cytopathic effect (trypan blue exclusion / MTT method). It is filed as cell-based. The method, then:
as §1, §2, §3, §4, §5, §6, §7, §8
For orientation: Protection from cytopathic effect is a common read-out in antiviral testing.

The mark [1] stands for this setting: Human immunodeficiency virus 1, MT4, effective amount necessary for permitting the cells infected with HIV to live to the 5th day after infection, read-out: ED₅₀.
Setting [2] is: Human immunodeficiency virus 1, MT4, 120 h, HIV-infected MT-4 cells, five days after infection, MTT method, dose achieving 50 % protection, read-out: HIV (µM) ED₅₀.

`NO[C@H]1C[C@H](n2ccc(N)nc2=O)O[C@@H]1CO` [3′-O-amino-2′-deoxycytidine]: the cytotoxicity entry with MT-4 cells (at the concentration of 500 µM) is “no cytotoxicity appeared”. The EC50 with HIV (setting [1]) is 61 µM.

For `Cc1cn([C@H]2C[C@H](ONC=O)[C@@H](CO)O2)c(=O)[nH]c1=O` [compound 1, 3′-O-formamidothymidine], the “HIV (µM) TD₅₀” value with MT-4 cells is 144 µM. The EC50 with HIV (setting [2]) was 13 µM.

For the molecule `NO[C@H]1C[C@H](n2cnc3c(=O)[nH]c(N)nc32)O[C@@H]1CO` [compound 5, 9-(3-O-amino-2-deoxy-β-D-erythro-pentofuranosyl)guanine], the “HIV (µM) TD₅₀” value with MT-4 cells worked out at 74.03 µM. Besides, in the series with HIV (setting [2]), the EC50 came out at 2.17 µM.

As for `C=NO[C@H]1C[C@H](n2cc(C)c(=O)[nH]c2=O)O[C@@H]1CO` [compound 2, 3′-O-methylideneaminothymidine], in the series on MT-4 cells, the “HIV (µM) TD₅₀” value was 106 µM. The EC50 with HIV (setting [2]) came out at 17 µM.

Take `Cc1cn([C@H]2C[C@H](ON)[C@@H](CO)O2)c(=O)[nH]c1=O` [3′-O-aminothymidine]: in the series on MT-4 cells (at the concentration of 125 µM), the cytotoxicity entry is “only slight cytotoxicity appeared”. Further, the EC50 with HIV (setting [1]) was determined as 23 µM.

With `CC(C)=NO[C@H]1C[C@H](n2cc(C)c(=O)[nH]c2=O)O[C@@H]1CO` [compound 3, 3′-O-isopropylideneaminothymidine], in the series on MT-4 cells, the “HIV (µM) TD₅₀” value is 313 µM. In addition, the EC50 with HIV (setting [2]) was determined as 32 µM.

Consider `NO[C@H]1C[C@H](n2cnc3c(N)ncnc32)O[C@@H]1CO` [compound 4, 9-(3-O-amino-2-deoxy-β-D-erythro-pentofuranosyl)adenine], for which the “HIV (µM) TD₅₀” value with MT-4 cells is on record as 1000 µM. For the same molecule, the EC50 in the series with HIV (setting [2]) and with HIV (setting [1]) was 32 µM each time.

The values are drawn from patent EP0381335A1, “Antiviral agent and novel nucleoside” (TANABE SEIYAKU CO., LTD., priority 1989, dated 1990).
